Laboratory results taken from patent publication US20110038889A1, “METHODS AND COMPOSITIONS FOR ALTERING CELL FUNCTION” (ALLTECH, INC., priority 2005, published 2011).

Assays:
[1] = tested on: Thioredoxin Reductase 1 gene; assay: Microarray gene expression, mouse intestine: Thioredoxin Reductase 1; type: in vivo; settings: diet 1 ppm Se, 100 days, vs selenium-deficient diet, all p <0.01
Text: (§1) Animal Care. Male C57BL/6J mice were housed singly and started on the experimental diets described below immediately after weaning (21 days of age). The mice were maintained in the Shared Aging Rodent Facility at the William S. Middleton Memorial Veterans Administration Medical Center (Madison, Wis.). Temperature and humidity were maintained at constant levels. Room light was controlled to provide 12-hr cycles of light and dark.
(§2) Experimental diets were created by Harlan Teklad (Madison, Wis.). Selenium content of the diets was determined by Covance Inc. (Madison, Wis.). Five (5) animals were included in each of the following treatment groups: a diet deficient in selenium (SD); a diet supplemented with selenomethionine (SM, obtained from Sigma,St. Louis, Mo.) such that the final selenium content of the diet was one (1) part per million; a diet supplemented with sodium selenite (SS, Sigma) such that the final concentration of selenium in this diet was one (1) part per million; or a diet supplemented with the yeast selenium SEL-PLEX (SP, Alltech, Lexington, Ky.), such that the final concentration of selenium in this diet was one (1) part per million. SEL-PLEX. […]
(§3) Tissue sample preparation and microarray analysis. […] For intestinal expression studies, the intestine was flushed twice with saline solution and small intestine was measured and divided in three equal segments. […]

[2] = tested on: Type 1 iodothyronine deiodinase; assay: Microarray gene expression, mouse intestine: Type 1 iodothyronine deiodinase; type: in vivo; settings: diet 1 ppm Se, 100 days, vs selenium-deficient diet
Text: as §1, §2, §3

Selenoprotein W (SelW) = assay: Microarray gene expression, mouse intestine: SelW; type: in vivo; settings: diet 1 ppm Se, 100 days, vs selenium-deficient diet
Text: as §1, §2, §3

SelR (Selenoprotein X1) = assay: Microarray gene expression, mouse intestine: SelR; type: in vivo; settings: diet 1 ppm Se, 100 days, vs selenium-deficient diet, p<0.01 Sod-sel, p<0.05 SEL-PLEX
Text: as §1, §2, §3

[3] = tested on: Growth arrest and DNA-damage-inducible 45 gamma (Gadd45g); assay: Microarray gene expression, mouse intestine: Gadd45g; type: in vivo; settings: diet 1 ppm Se, 100 days, vs selenium-deficient diet, negative = down-regulated
Text: as §1, §2, §3

[4] = tested on: Glutathione S-transferase, alpha 3 (Gsta3); assay: Microarray gene expression, mouse intestine: Gsta3; type: in vivo; settings: diet 1 ppm Se, 100 days, vs Se-deficient diets, negative = down-regulated, NS = not significant
Text: as §1, §2, §3

[5] = tested on: Glutathione S-transferase, mu1 (Gstm1); assay: Microarray gene expression, mouse intestine: Gstm1; type: in vivo; settings: diet 1 ppm Se, 100 days, vs Se-deficient diets, negative = down-regulated, NS = not significant
Text: as §1, §2, §3

[6] = tested on: Glutathione S-transferase, mu2 (Gstm2); assay: Microarray gene expression, mouse intestine: Gstm2; type: in vivo; settings: diet 1 ppm Se, 100 days, vs Se-deficient diets, negative = down-regulated, NS = not significant
Text: as §1, §2, §3

[7] = tested on: Glutathione S-transferase, mu3 (Gstm3); assay: Microarray gene expression, mouse intestine: Gstm3; type: in vivo; settings: diet 1 ppm Se, 100 days, vs Se-deficient diets, negative = down-regulated, NS = not significant
Text: as §1, §2, §3

[8] = tested on: Glutathione S-transferase, theta 2 (Gstt2); assay: Microarray gene expression, mouse intestine: Gstt2; type: in vivo; settings: diet 1 ppm Se, 100 days, vs Se-deficient diets, negative = down-regulated, NS = not significant
Text: as §1, §2, §3

Cathepsin Z = assay: Microarray gene expression, mouse cerebral cortex: Cathepsin Z; type: in vivo; settings: diet 1 ppm Se, 100 days, relative to Se-deficient mice, negative = down-regulated, * significant
Text: as §1, §2, §3

Gst zeta 1 (Gstz1) = assay: Microarray gene expression, mouse brain: Gstz1; type: in vivo; settings: diet 1 ppm Se, 100 days, relative to Se-deficient animals, negative = down-regulated, * significant
Text: as §1, §2, §3

calpain-5 = assay: Expression level of calpain genes after selenium administration; type: in vivo; settings: tissue not stated; + up, − down; * not explained at this place
Experimental: Compositions and methods of the present invention were analyzed to determine if they were capable of altering the expression levels of calpain genes. Compositions comprising various forms of selenium (e.g., SeM, Sod-sel, and SEL-PLEX) were administered to subjects and the expression levels of calpain genes monitored. The expression level of calpain-5 was altered by treatment in the following ways: free selenomethionine (SM) +1.32*, Sod-sel −1.07, SEL-PLEX −1.44*.

[9] = Body weight of mice on selenium diets; type: in vivo, mouse
Text: as §1
Experimental diets were created by Harlan Teklad (Madison, Wis.). Selenium content of the diets was determined by Covance Inc. (Madison, Wis.). […]
Thus, it was an object of the present invention to determine whether compositions and methods of the present invention could alter the expression levels (e.g., mRNA levels) of various genes. One group of genes analyzed were genes classically associated with selenium. As described above, the expression levels of genes were analyzed between mice with and without dietary selenium, or, between mice fed different sources of selenium) (See, e.g., Table 1, below).

selenoprotein N1 (Sepn1) = assay: Microarray gene expression, mouse intestine: Sepn1; type: in vivo; settings: diet 1 ppm Se, 100 days, vs selenium-deficient diet, p<0.02 for SEL-PLEX
Text: as §1, §2, §3

[10] = tested on: type II iodothyronine deiodinase (Dio2); assay: Microarray gene expression, mouse intestine: Dio2; type: in vivo; settings: Example 4 (intestine); diet 1 ppm Se, 100 days; vs selenium-deficient diet
Text: as §1, §2, §3

Glyoxalase 1 (Glo1) = assay: Microarray gene expression, mouse intestine: Glo1; type: in vivo; settings: Example 4 (intestine); diet 1 ppm Se, 100 days; vs selenium-deficient diet; p<0.01 for SEL-PLEX
Text: as §1, §2, §3

[11] = tested on: LIM homeobox protein 8 gene (Lhx8); assay: Microarray gene expression, mouse intestine: Lhx8; type: in vivo; settings: Example 5 (intestine); diet 1 ppm Se, 100 days; vs Se-deficient subjects; p<0.01 for SEL-PLEX
Text: as §1, §2, §3

[12] = tested on: transforming growth factor beta 2 (TGF-β2); assay: Microarray gene expression, mouse intestine: TGF-β2; type: in vivo; settings: Example 5 (intestine); diet 1 ppm Se, 100 days; compared to controls
Text: as §1, §2, §3

Neurogenin 3 (Neurog3) = assay: Microarray gene expression, mouse intestine: Neurog3; type: in vivo; settings: Example 6 (intestine); diet 1 ppm Se, 100 days; vs selenium-deficient diet
Text: as §1, §2, §3

[13] = tested on: sprouty homolog 2 gene (Spry2); assay: Microarray gene expression, mouse intestine: Spry2; type: in vivo; settings: Example 7 (intestine); diet 1 ppm Se, 100 days; relative to Se-deficient controls
Text: as §1, §2, §3

[14] = tested on: Complement component 1, q subcomponent, gamma polypeptide, C1qg; assay: Microarray gene expression, mouse cerebral cortex: C1qg; type: in vivo; settings: diet 1 ppm Se, 100 days, vs selenium-deficient diet, negative = down-regulated, * p<0.01
Text: as §1, §2, §3

CORS-26 = assay: Microarray gene expression, mouse cerebral cortex: CORS-26; type: in vivo; settings: Example 10 (cerebral cortex); diet 1 ppm Se, 100 days; vs selenium-deficient diet
Text: as §1, §2, §3

[15] = Hen brain Se concentration after dietary selenium sources; type: in vivo, White-Egg-Laying Hens; settings: 0.3 ppm Se in hen diet; basal diet 870 ppb; Selenosource one sample only
Experimental: (§4) Compositions and methods of the present invention were utilized to evaluate the effects of various Se sources on the accumulation of brain Se concentrations in hens and their offspring.
(§5) The study was conducted at the Coldstream Research Facility from Jun. 28, 2004 until Nov. 16, 2004. Six dietary treatments were fed to a total of 48 hens (r=8) that were bred on three consecutive days starting on Sep. 16, 2004.
(§6) The dietary treatments were as follows: Basal (no added Se) Selenite (0.3 ppm) SEL-PLEX (0.3 ppm) Tepsel (0.3 ppm) Se 2000 (0.3 ppm) Selenosource (0.3 ppm)
(§7) Chicks that hatched were divided into two groups. Half of the chicks were killed for brain collection and the remaining chicks were allowed to grow for 14 days on a Se deficient diet, at which time they were terminated for brain collection. Hen brains were analyzed for Se content individually, whereas the chick brains were homogenized and pooled because of small sample size.

[16] = Chick brain Se concentration at day 14 (offspring of treated hens); type: in vivo, chicks (offspring of white-egg-laying hens); settings: chicks of hens fed 0.3 ppm Se; chicks grown 14 days on Se deficient diet; pooled brains; basal 786 ppb
Experimental: as §4, §5, §6, §7

**Q.** With O=[Se](O)O [Sod-sel, sodium selenite] as the molecule, how does the “Fold increase in expression of the Thioredoxin Reductase 1 gene” value [1] read?
**A.** 1.7 fold

**Q.** What about the “Fold increase in expression level of Type 1 iodothyronine deiodinase” value [2] of the same molecule?
**A.** 2.8 fold

**Q.** And the “Fold upregulation of Selenoprotein W (SelW) expression” value (Selenoprotein W (SelW))?
**A.** 5.1 fold

**Q.** And the “Fold upregulation of SelR gene expression” value (SelR (Selenoprotein X1))?
**A.** 1.3 fold

**Q.** And the “FC (fold change) of Gadd45g expression” value [3]?
**A.** −2.0 (p < 0.01) fold

**Q.** And the “FC (fold change) of Gsta3 expression” value [4]?
**A.** −2.3 fold

**Q.** And the “FC (fold change) of Gstm1 expression” value [5]?
**A.** −2.4 fold

**Q.** What about the “FC (fold change) of Gstm2 expression” value [6] of the same molecule?
**A.** −2.1 fold

**Q.** And the “FC (fold change) of Gstm3 expression” value [7]?
**A.** −2.7 fold

**Q.** And the “FC (fold change) of Gstt2 expression” value [8]?
**A.** −1.3 fold

**Q.** What about the “FC (fold change) of Cathepsin Z expression” value (Cathepsin Z) of the same molecule?
**A.** −1.30* fold

**Q.** And the “FC (fold change) of Gstz1 expression in brain” value (Gst zeta 1 (Gstz1))?
**A.** −1.3 fold

**Q.** What about the “Alteration of expression level of calpain-5” value (calpain-5) of the same molecule?
**A.** −1.07

**Q.** And the “Body weights of mice” value ([9]; compared among selenium-deficient, Se-meth, Sod-sel and SEL-PLEX diets (FIG. 1))?
**A.** No significant differences

**Q.** Which results are given for C[Se]CC[C@H](N)C(=O)O [SeM, selenomethionine]?
**A.** Fold increase in expression level of Type 1 iodothyronine deiodinase [2]: 2.0 fold; Fold upregulation of Selenoprotein W (SelW) expression (Selenoprotein W (SelW)): not significantly altered; Fold increase of selenoprotein N1 (Sepn1) gene expression (selenoprotein N1 (Sepn1)): not significantly affected; Fold upregulation of SelR gene expression (SelR (Selenoprotein X1)): not significantly affected; Fold down-regulation of Dio2 expression [10]: no ability to alter; Fold reduction of Glo1 expression (Glyoxalase 1 (Glo1)): not significantly affected; FC (fold change) of Gadd45g expression [3]: −1.5 (p < 0.05) fold; Fold upregulation of Lhx8 expression [11]: not significantly different; Fold upregulation of TGF-β2 expression [12]: not altered; Fold upregulation of Neurog3 expression (Neurogenin 3 (Neurog3)): no significant alteration; Fold reduction in Spry2 gene expression [13]: no alteration; FC (fold change) of C1qg expression [14]: 1.0 fold; Fold reduction in expression of CORS-26 (CORS-26): no alteration; Body weights of mice ([9]; mouse, in vivo): No significant differences

**Q.** What does the source list for O=[Se](O)O [Selenite]?
**A.** Hen Brain Se Concentration [15]: 850 ppb; Chick Brain Se Concentration at day 14 [16]: 784 ppb
